US12503455B2, “Nucleic acid-binding photoprobes and uses thereof” (Arrakis Therapeutics, Inc., priority 2017, dated 2025)
Values belong to the compound of their own block, whether it stands above or below them.

How the values were obtained:
[1] = system: Aptamer 21; assay: LC-MS analysis of cross-linked RNA; assay type: binding
Experimental: (§1) Folded RNA (1.33 μM) was incubated with or without the photoaffinity probe (20 μM) in total 100 μL of buffer (20 mM TrisHCl pH 8, 100 mM KCl, 3 mM MgCl2) with 2% DMSO for 30 min at 37° C. to allow binding to come to equilibrium. The sample was then irradiated with long wave UV light (˜365 nm) for 30 min in a UV crosslinker (Fisher Scientific).
The RNA was then precipitated by adding 10 μL of 3 M sodium acetate pH 5 and 275 μL ethanol, cooling to −80° C. for 1 h, and then centrifuging at 20,500×g at 4° C. for 30 min. The RNA pellet was washed with 500 μL of 70% ethanol, air dried for 5 min, and then resuspended in 120 μL of water.
50 μL of RNA sample was injected onto Clarity 2.6 μm Oligo X-T column (50*2.1 mm, 60° C.), and the gradient and flowrate were as follows: 95% A/5% B to 75% A/25% B over 5 min, flowrate: 400 μL/min; 75% A/25% B to 30% A/70% B over 1 min, flowrate: 400 μL/min; 100% D over 1 min, flowrate: 500 μL/min; 95% A/5% B over 2 min, flowrate: 500 μL/min (A: 1% HFIPA (hexafluoroisopropyl alcohol), 0.1% DIEA (diisopropylethylamine), 1 μM EDTA (ethylenediamine tetraacetic acid) in H2O; B: 0.075% HFIPA, 0.0375% DIEA, 1 μM EDTA in 65/35 MeCN/H2O; D: 40/40/20% MeOH/MeCN/H2O); The LCMS instrument was a Thermo Finnigan LTQ, and ProMass deconvolution software coupled with Xcaliber were used for all data processing.

[2] = system: Aptamer 21; assay: Competition between Aptamer 21 photoprobes and RNA-binding ligands (RT pausing)
Experimental: Aptamer 21 was either incubated with probe alone (ARK-581) or probe plus a 10-fold excess of RNA-binding ligand.
Both ARK-852 and ARK-139 inhibit the photocrosslinking of probes to Aptamer 21.
as §1, with “RNA (1” for “RNA (1.33”, “with” for “with or without”, “probe (10” for “probe (20”, “total 25” for “total 100”, “with 2.5%” for “with 2%”
(§2) A 3.75 μL aliquot of 10 μM reverse transcription primer was added to the cross-linked RNA sample, which was then incubated for 5 min at 65° C. and then cooled on ice. The sample was then diluted to a final volume of 60 μL and final buffer concentration of 1× Protoscript-II buffer (New England Biolabs), 0.5 mM dNTPs, 10 mM DTT, 0.4 U/μL RNase Inhibitor (New England Biolabs), and 10 U/μL Protoscript-II (New England Biolabs). The reaction was incubated at 45° C. for 2 h, 65° C. for 20 min, and then 4° C.
(§3) The RNA was hydrolyzed by the addition of 4.8 μL of 2.5 M NaOH and heating at 95° C. for 5 min. The reaction was quenched by the addition of 0.9 μL of acetic acid. The cDNA was precipitated by the addition of 6.6 μL of 3 M sodium acetate pH 5 and 181 μL ethanol, cooling to −80° C. for 1 h, and then centrifuging at 20,500×g at 4° C. for 30 min. The cDNA pellet was washed twice with 500 μL of 70% ethanol and then air dried for 5 min.
(§4) The cDNA pellet was resuspended in 12 μL of 1×TBE-urea sample loading buffer (Bio-Rad) and heated to 95° C. for 5 min. The sample was then run on a pre-cast 8.6×6.7 cm TBE-urea 10% PAGE gel (Bio-Rad) at 120 V until the lower bromophenol blue dye reached the bottom of the gel. The gel was stained with 1×SYBR-gold (Invitrogen) in 1×TBE buffer at room temperature for 20 min covered from light. The gel fluorescence was imaged on an Azure c600 instrument.

[3] = system: Aptamer 21; assay: Surface plasmon resonance (SPR) binding to Aptamer 21; conditions: for binding to Aptamer 21 by SPR, separated enantiomers: 10 uM
Excerpt: Surface plasmon resonance (SPR) may be used to screen ligands and hook and click constructs for binding to a target RNA of interest. SPR is especially useful for monitoring biomolecular interactions in real time. Typically, target species and unrelated control are immobilized to a sensor chip, then analytes (compounds/fragments) are flowed over the surface. Binding of the compound to target species results in increase of SPR signal (association phase). Washing away bound compound with buffer results in a decrease of SPR signal (dissociation phase). Fitting of sensorgrams recorded at different compound concentrations is performed to an appropriate interaction model. The method allows extraction of kinetic parameters (ka, kd→KD). Requirements/limitations include that the ka/kd values be in reasonable ranges; and the target size must not be too large (<100 kDa). It is an excellent method to screen fragments and profile or validate hits. BC4000 may be used for primary screening (up to 4,000 data pts/week). Biacore T200 is suitable for hit profiling and validation.
In the PEARL-seq context, SPR allows monitoring binding of “hooks” to DNA/RNA aptamers. The target species is immobilized to sensor chip, analytes (i.e. hooks) are flowed over surface (association phase), DNA/RNA aptamer is flowed over surface (plateau phase), competitor compound is washed over surface (dissociation phase), thus yielding binding data.
Experiments were performed on a MASS-2 (Sierra Sensors) at 25° C. A high capacity amine chip was equilibrated with PBS. The chip was conditioned with alternating injections of 10 mM HCl and 10 mM NaOH in 1 M NaCl. The carboxymethylated dextran of the surface of the amine chip was activated for 7 minutes at a flow rate of 10 μL/min using a 1:1 volume ratio of 0.4 M 1-ethyl-3-(3-dimethylaminopropyl) carbodiimide (Sierra) and 0.1 M N-hydroxysuccinimide (Sierra). Neutravidin (70 μg/mL, Thermofisher) was injected over the activated surface for 10 minutes at a flow rate of 10 μl/min. Excess activated groups were blocked by an injection of 1 M ethanolamine, pH 8.5 (Sierra) for 7 minutes at a flow rate of 10 μl/min. A final injection of 10 mM NaOH in 1 M NaCl for 7 minutes at 10 μl/min was used to remove any unbound material to the chip. The immobilization reaction typically yielded approximately 12,000 resonance units (RU) of neutravidin. At least one spot in a channel was not injected with RNA and was used as a background control. Unrelated RNA was also used as a background control.
A 1 μM sample of biotin-aptamer 21 was prepared in RNAse free water, heated to 95° C. for 3 minutes, cooled on ice for 4 minutes, diluted with an equal volume 2× folding buffer (40 mM Tris-HCl, pH 8.0, 6 mM MgCl2, 200 mM KCl), and incubated at 37° C. for 30 minutes. The final concentration of RNA was 0.5 μM.
The MASS-2 was primed 2 times with 20 mM Tris-HCl, pH 8.0, 3 mM MgCl2, 100 mM KCl (Capture Buffer). RNA was injected over the neutravidin surface for 7 minutes at a flow rate of 10 μl/min. Capture levels typically reached approximately 3500-4500 of resonance units of aptamer 21.
Compounds were diluted 2-fold in 100% DMSO at a starting concentration of 500 μM.
The MASS-2 was primed 2 times with 20 mM Tris-HCl, pH 8.0, 3 mM MgCl2, 100 mM KCl, 1% DMSO (running buffer). Prior to testing compounds 3 injections of running buffer were used to equilibrate the sensor surface. […]

[4] = system: Aptamer 21; assay: Reverse transcriptase pausing (drop-off) gel assay of photo-crosslinking to Aptamer 21; assay type: binding; conditions: FIG. 52
Experimental: A solution of RNA at 2 to 5 μM in nuclease-free water was heated to 95° C. for 3 min and then cooled on ice for 2 min. This solution was diluted with ½ volume of 3×RNA folding buffer (60 mM TrisHCl pH 8, 300 mM KCl, 9 mM MgCl2) and incubated at 37° C. for 20 min. Folding was carried out immediately before use of the RNA in each experiment. In cases where a mixture of RNA molecules was used in vitro the RNAs were folded separately and then combined prior to the probing experiment.
as §1, with “RNA (1” for “RNA (1.33”, “with” for “with or without”, “probe (10” for “probe (20”, “total 25” for “total 100”, “with 2.5%” for “with 2%”
as §2, §3, §4

SMILES: COC(=O)C1=C(COCc2cn(CCOCCOCCNC(=O)c3ccc(N=[N+]=[N-])cc3)nn2)NC(c2ccncc2)=NC1c1ccc(F)cc1Cl (stereo not shown) [ARK-581]
covalent modification of the RNA by LC-MS [1]: 10%

SMILES: COC(=O)C1=C(COCc2cn(CCOCCOCCO)nn2)NC(c2ccncc2)=N[C@H]1c1ccc(F)cc1Cl [ARK-701, (R)-methyl 4-(2-chloro-4-fluorophenyl)-6-(((1-(2-(2-(2-hydroxyethoxy)ethoxy)ethyl)-1H-1,2,3-triazol-4-yl)methoxy)methyl)-2-(pyridin-4-yl)-1,4-dihydropyrimidine-5-carboxylate]
binding to Aptamer 21 by SPR, separated enantiomers [3]: did bind

SMILES: Cc1ncccc1C(=O)n1ccnc1 [NAI, 2-methylnicotinic acid imidazolide, reference compound]
shortened sequences produced in PEARL-seq reverse transcriptase pausing gel assay [4]: numerous shortened sequences

Second part, the compound after the results:

inhibition of photocrosslinking of ARK-581 to Aptamer 21 ([2]; 10-fold excess of RNA-binding ligand over probe): efficiently inhibited | inhibition of photocrosslinking of probes to Aptamer 21 (RT pausing competition assay) ([2]; FIG. 65): inhibit | binding to Aptamer 21 by SPR [3]: SPR-active
SMILES: Cc1ccc(C(=O)N2Cc3ccccc3C[C@H]2C(N)=O)cc1NCc1c(F)ccc(O)c1F [ARK-852]

binding to Aptamer 21 by SPR, separated enantiomers [3]: did not bind
SMILES: COC(=O)C1=C(COCc2cn(CCOCCOCCO)nn2)NC(c2ccncc2)=N[C@@H]1c1ccc(F)cc1Cl [ARK-702, (S)-methyl 4-(2-chloro-4-fluorophenyl)-6-(((1-(2-(2-(2-hydroxyethoxy)ethoxy)ethyl)-1H-1,2,3-triazol-4-yl)methoxy)methyl)-2-(pyridin-4-yl)-1,4-dihydropyrimidine-5-carboxylate]
